Literature values in PubChem BioAssay AID1259409 (Chemical Carcinogenesis Research Information System (CCRIS), 2018).
Where “and” joins values, the source holds several entries; their conditions need not be identical. Equal values may be shown once.

System: rodent chemically induced tumor inhibition, incidence and multiplicity
Assay: CCRIS tumor inhibitor studies
Details: for outcome: Carcinogen: N-methyl-N-nitrosourea (684-93-5), study duration 4 wks, Route [Inhibitor]: Oral, Species: Rat, Strain/Sex: F344/DuCrj/Male, Dose [Carcinogen]: 2 mg/rat, 3 x a wk for 4 wks

For `C[Si](C)(C)c1cc(C(=O)Nc2ccc(C(=O)O)cc2)cc([Si](C)(C)C)c1`, the outcome (Dose [Inhibitor]: 0, 0.8 mg/kg by gavage 5 d/wk for 1 wk, Dose [Inhibitor]: 0, 0.8 mg/kg by gavage 5 d/wk for 1 wk) is listed as “colon: tumors”, the outcome (Dose [Inhibitor]: 0, 0.8 mg/kg by gavage 5 d/wk for 4 wks, Dose [Inhibitor]: 0, 0.8 mg/kg by gavage 5 d/wk for 4 wks) is listed as “colon: tumors” and the outcome (Dose [Inhibitor]: 0, 8 mg/kg by gavage 5 d/wk for 1 wk, Dose [Inhibitor]: 0, 8 mg/kg by gavage 5 d/wk for 1 wk) is listed as “colon: tumors”. For the same compound, the outcome (Dose [Inhibitor]: 0, 8 mg/kg by gavage 5 d/wk for 4 wks, Dose [Inhibitor]: 0, 8 mg/kg by gavage 5 d/wk for 4 wks) was “colon: tumors”.
In the case of `CC(O)CCC(=O)c1cccnc1` (centres undefined), the “tumour outcome (control, treated, inhibition, significance)” value (Carcinogen: 4-(METHYLNITROSAMINO)-1-(3-PYRIDYL)-1-BUTANONE, 64091-91-4, Dose [Inhibitor]: 0, 25 UMOL IN 0.1 ML CORN OIL ONCE 2 HR PRIOR TO CARCINOGEN DOSE (STUDY DURATION: 16 WK), Route [Inhibitor]: GAVAGE, Species: MOUSE, Strain/Sex: STRAIN-A/FEMALE, Target Tissue: Type of Lesion: LUNG: ADENOMA, Dose [Carcinogen]: 10 UMOL IN 0.1 ML SALINE ONCE, Promoter: NONE USED) is given as 100%, 100%, 0%, not significant.
For `O=C1C=CC(=O)c2c(O)cccc21`, the “tumour outcome (control, treated, inhibition, significance)” value (Carcinogen: AZOXYMETHANE [25843-45-2], Dose [Inhibitor]: 200 PPM IN DIET FOR 4 WK BEGINNING 1 WK PRIOR TO FIRST CARCINOGEN DOSE (STUDY DURATION: 35 WK), Route [Inhibitor]: ORAL, Species: RAT, Strain/Sex: F344/MALE, Target Tissue: Type of Lesion: COLON: ADENOMA, Dose [Carcinogen]: 15 MG/KG BW 1X/WK FOR 3 WK (STUDY DURATION: 35 WK), Promoter: NONE) is listed as 6/28 (21%), 4/30 (13%), 38%, not significant, the “tumour outcome (control, treated, inhibition, significance)” value (Carcinogen: AZOXYMETHANE [25843-45-2], Dose [Inhibitor]: 200 PPM IN DIET FOR 4 WK BEGINNING 1 WK PRIOR TO FIRST CARCINOGEN DOSE (STUDY DURATION: 35 WK), Route [Inhibitor]: ORAL, Species: RAT, Strain/Sex: F344/MALE, Target Tissue: Type of Lesion: COLON: CARCINOMA, Dose [Carcinogen]: 15 MG/KG BW 1X/WK FOR 3 WK (STUDY DURATION: 35 WK), Promoter: NONE) is listed as 8/28 (29%), 11/30 (37%), -28%, not significant and the “tumour outcome (control, treated, inhibition, significance)” value (Carcinogen: AZOXYMETHANE [25843-45-2], Dose [Inhibitor]: 200 PPM IN DIET FOR 4 WK BEGINNING 1 WK PRIOR TO FIRST CARCINOGEN DOSE (STUDY DURATION: 35 WK), Route [Inhibitor]: ORAL, Species: RAT, Strain/Sex: F344/MALE, Target Tissue: Type of Lesion: SMALL INTESTINE: CARCINOMA, Dose [Carcinogen]: 15 MG/KG BW 1X/WK FOR 3 WK (STUDY DURATION: 35 WK), Promoter: NONE) is listed as 7/28 (25%), 2/30 (7%), 72%, p<0.05.
For `CC1=C(/C=C/C(C)=C/C=C/C(C)=C/C(=O)NCC(O)CO)C(C)(C)CCC1` (centres undefined), the “tumour outcome (control, treated, inhibition, significance)” value (Carcinogen: N-BUTYL-N-(4-HYDROXYBUTYL)NITROSAMINE, 3817-11-6, Dose [Inhibitor]: 1.5 MMOL/KG/D IN DIET FOR 108 D STARTING 1 WK POST CARCINOGEN TREATMENT (STUDY DURATION: 171 D), Route [Inhibitor]: ORAL, Species: MOUSE, Strain/Sex: BDF/MALE, Target Tissue: Type of Lesion: URINARY BLADDER: TRANSITIONAL CELL CARCINOMA, Dose [Carcinogen]: 5 MG 2/WK FOR 9 WK, Promoter: NONE USED) is listed as 31/55 (56%), 25/54 (46%), 18%, not significant, the “tumour outcome (control, treated, inhibition, significance)” value (Carcinogen: N-NITROSOBIS(2-OXOPROPYL)AMINE, 60599-38-4, Dose [Inhibitor]: 0.25 MMOL/KG OF DIET FOR 184 D STARTING 2 WK AFTER LAST CARCINOGEN DOSE WITH 4 INTERMITTENT 1 WK REST PERIODS OF VEHICLE, Route [Inhibitor]: ORAL, Species: HAMSTER, Strain/Sex: SYRIAN/FEMALE, Target Tissue: Type of Lesion: PANCREAS: CARCINOMA, Dose [Carcinogen]: 20 MG/KG INJECTION GIVEN TWICE 1 WK APART, Promoter: NONE USED) is listed as 38%, 35%, 8%, not calculated and the “tumour outcome (control, treated, inhibition, significance)” value (Carcinogen: N-NITROSOBIS(2-OXOPROPYL)AMINE, 60599-38-4, Dose [Inhibitor]: 0.25 MMOL/KG OF DIET FOR 184 D STARTING 2 WK AFTER LAST CARCINOGEN DOSE WITH 4 INTERMITTENT 1 WK REST PERIODS OF VEHICLE, Route [Inhibitor]: ORAL, Species: HAMSTER, Strain/Sex: SYRIAN/MALE, Target Tissue: Type of Lesion: PANCREAS: CARCINOMA, Dose [Carcinogen]: 20 MG/KG INJECTION GIVEN TWICE 1 WK APART, Promoter: NONE USED) is listed as 34%, 43%, -26%, not calculated. For the same compound, the “tumour outcome (control, treated, inhibition, significance)” value (Carcinogen: N-NITROSOBIS(2-OXOPROPYL)AMINE, 60599-38-4, Dose [Inhibitor]: 0.25 MMOL/KG OF DIET FOR 350 D STARTING 2 WK AFTER LAST CARCINOGEN DOSE AND INTERRUPTED TWICE BY 1 WK REST PERIODS OF VE, Route [Inhibitor]: ORAL, Species: HAMSTER, Strain/Sex: SYRIAN/FEMALE, Target Tissue: Type of Lesion: LIVER: HEPATOCELLULAR CARCINOMA, Dose [Carcinogen]: 20 MG/KG INJECTION GIVEN TWICE 1 WK APART, Promoter: NONE USED) was 5%, 28%, -460%, not calculated, the “tumour outcome (control, treated, inhibition, significance)” value (Carcinogen: N-NITROSOBIS(2-OXOPROPYL)AMINE, 60599-38-4, Dose [Inhibitor]: 0.25 MMOL/KG OF DIET FOR 350 D STARTING 2 WK AFTER LAST CARCINOGEN DOSE AND INTERRUPTED TWICE BY 1 WK REST PERIODS OF VE, Route [Inhibitor]: ORAL, Species: HAMSTER, Strain/Sex: SYRIAN/MALE, Target Tissue: Type of Lesion: LIVER: HEPATOCELLULAR CARCINOMA, Dose [Carcinogen]: 20 MG/KG INJECTION GIVEN TWICE 1 WK APART, Promoter: NONE USED) was 7%, 14%, -100%, not calculated and the “tumour outcome (control, treated, inhibition, significance)” value (Carcinogen: N-NITROSOBIS(2-OXOPROPYL)AMINE, 60599-38-4, Dose [Inhibitor]: 0.5 MMOL/KG OF DIET FOR 153 D STARTING 2 WK AFTER LAST CARCINOGEN DOSE WITH 4 INTERMITTENT 1 WK REST PERIODS OF VEHICLE-, Route [Inhibitor]: ORAL, Species: HAMSTER, Strain/Sex: SYRIAN/FEMALE, Target Tissue: Type of Lesion: LIVER: HEPATOCELLULAR CARCINOMA, Dose [Carcinogen]: 20 MG/KG INJECTION GIVEN TWICE 1 WK APART, Promoter: NONE USED) was 5%, 0%, 100%, not calculated. The “tumour outcome (control, treated, inhibition, significance)” value (Carcinogen: N-NITROSOBIS(2-OXOPROPYL)AMINE, 60599-38-4, Dose [Inhibitor]: 0.5 MMOL/KG OF DIET FOR 153 D STARTING 2 WK AFTER LAST CARCINOGEN DOSE WITH 4 INTERMITTENT 1 WK REST PERIODS OF VEHICLE-, Route [Inhibitor]: ORAL, Species: HAMSTER, Strain/Sex: SYRIAN/FEMALE, Target Tissue: Type of Lesion: PANCREAS: NEOPLASM, Dose [Carcinogen]: 20 MG/KG INJECTION GIVEN TWICE 1 WK, Promoter: NONE USED) was 38%, 21%, 45%, not calculated and the “tumour outcome (control, treated, inhibition, significance)” value (Carcinogen: N-NITROSOBIS(2-OXOPROPYL)AMINE, 60599-38-4, Dose [Inhibitor]: 0.5 MMOL/KG OF DIET FOR 153 D STARTING 2 WK AFTER LAST CARCINOGEN DOSE WITH 4 INTERMITTENT 1 WK REST PERIODS OF VEHICLE-, Route [Inhibitor]: ORAL, Species: HAMSTER, Strain/Sex: SYRIAN/MALE, Target Tissue: Type of Lesion: PANCREAS: CARCINOMA, Dose [Carcinogen]: 20 MG/KG INJECTION GIVEN TWICE 1 WK APART, Promoter: NONE USED) was 34%, 36%, -6%, not calculated.
For `CC(C)(C)c1cc(O)c(O)c(C(C)(C)C)c1`, the “tumour outcome (control, treated, inhibition, significance)” value (Carcinogen: BENZO[A]PYRENE, 50-32-8, Dose [Inhibitor]: 0.03 MMOL/G OF DIET DAILY STARTING 7 D BEFORE AND CONTINUING THROUGH 3 D AFTER CARCINOGEN TREATMENT FOLLOWED BY OBSERVAT, Route [Inhibitor]: ORAL, Species: MOUSE, Strain/Sex: ICR/FEMALE, Target Tissue: Type of Lesion: FORESTOMACH: NEOPLASM, Dose [Carcinogen]: 1 MG IN 0.2 ML CORN OIL 2/WK FOR 4 WK, Promoter: NONE USED) is listed as 100%, 75%, 25%, p<0.05 and 95%, 74%, 22%, not significant.
In the case of `CN1CCN(CCCN2c3ccccc3Sc3ccc(C(F)(F)F)cc32)CC1`, the “tumour outcome (control, treated, inhibition, significance)” value (Carcinogen: AZOXYMETHANE, 25843-45-2, Dose [Inhibitor]: 0, 15 MG/KG BW IN OLIVE OIL 1/2 D FOR 35 WK BEGINNING WITH START OF CARCINOGEN TREATMENT (STUDY DURATION: 35 WK), Route [Inhibitor]: SUBCUTANEOUS, Species: RAT, Strain/Sex: WISTAR/MALE, Target Tissue: Type of Lesion: COLON: TUMORS, Dose [Carcinogen]: 7.4 MG/KG BW IN 0.9% SALINE 1/WK FOR 10 WK, Promoter: NONE USED) is listed as 8/17 (47%), 11/17 (65%), -38%, not significant and the “tumour outcome (control, treated, inhibition, significance)” value (Carcinogen: AZOXYMETHANE, 25843-45-2, Dose [Inhibitor]: 0, 30 MG/KG BW IN OLIVE OIL 1/2 D FOR 35 WK BEGINNING WITH START OF CARCINOGEN TREATMENT (STUDY DURATION: 35 WK), Route [Inhibitor]: SUBCUTANEOUS, Species: RAT, Strain/Sex: WISTAR/MALE, Target Tissue: Type of Lesion: COLON: TUMORS, Dose [Carcinogen]: 7.4 MG/KG BW IN 0.9% SALINE 1/WK FOR 10 WK, Promoter: NONE USED) is listed as 8/17 (47%), 9/20 (45%), 4%, not significant.
